Experimental data: US20110081675A1, “Metabolic Biomarkers Of Drug-Induced Cardiotoxicity” (WISCONSIN ALUMNI RESEARCH FOUNDATION, priority 2009, published 2011)

Columns and labels:
[1] = tested on: human cardiomyocytes (Celprogen 36044-15at); test: LC-ESI-TOF-MS metabolomics of extracellular media of drug-treated human cardiomyocytes (Tables 2A-2C); assay type: cell-based; details: for pacfold: 15uM paclitaxel; for tamfold: 15uM tamoxifen
Experimental: Data for statistical analysis were extracted from chromatograms using the Agilent Mass Hunter software (Product No. G3297AA, Agilent Technologies, Inc., Santa Clara, Calif.); it will be understood that alternative statistical analysis methods can be used. Masses were binned together if they were within 10 ppm and eluted within a 2 minutes retention time window. A binned mass was considered to be the same molecule across different LC-ESI-TOF-MS analyses (referred to herein as an “exact mass,” which will be understood to be ±10 ppm). Binning of the data is required for statistical analysis and comparison of masses across the entire experiment. If multiple peaks with the same mass at the same retention time within a single sample were detected by Mass Hunter, they were averaged to assist data analysis. Masses lacking a natural isotopic distribution or with an absolute height of less than 1000 were removed from the data prior to analysis. It would be understood that the results from this assay provide relative values that are assessed according to annotated values within 10 ppm to provide an identity for the molecular weight detected. Thus, a mass shift within 10 ppm is considered consistent with determining the identity of a specific cellular metabolite previously annotated due to differences in ionization source and instrumentation, e.g. between different experiments or using different instruments.
As used herein, a mass was considered to be the same across LC/ESI-TOF-MS runs using a simple algorithm that first sorts the data by mass and retention time. […] If a series of measurements fit this definition it was considered to be from the same compound. If either the mass or the retention time varied by more than the limits listed above it was considered to be a different compound and given a new unique designation.
The data from the most reproducible mass features was log base 2 transformed and median centered prior to statistical analysis. […] To test the null hypothesis a one way permutation based t-test assuming a normal approximation of the conditional distribution was used and implement using the Conditional Inference Procedures in a Permutation Test Framework (Coin) library, a contributed package of programming code. Statistics tests were performed without replacement of missing values decrease the degrees of freedom rather than imputing missing values. […] False discovery rates (FDR) were controlled using the Q value estimator (Storey et al., 2003, Proc Natl Acad. Sci., 100:9440-5) and implemented using the qvalue library in R (Dabney et al., 2003, qvalue: Q-value estimation for false discovery rate control. R package version 1.10.0., www.CRAN.R-project.org).
The extracellular media from treated and untreated cells was processed as described in Cezar et al., (2007, Stem Cells Development 16: 869-882, this publication is incorporated by reference), for extraction of low molecular weight molecules (<3 kD) for metabolomics analysis. Extracellular low molecular weight molecule preparations were separated by liquid chromatography followed by electrospray ionization time of flight (LC-ESI-TOF-MS) mass spectrometry for ionization and detection of the full spectra of low molecular weight molecules present in each sample. More specifically, the samples were separated using the ESI_Luna_HILIC—95_t—06OACN—16 min method (HILIC chromatography). Statistical differences were inferred by subsequent bioinformatics and in silico mapping of deisotoped ESI-TOF-MS mass features as described below (also provided in Cezar et al. (2007, id.)).
Briefly, ionization (100 m/z-1500 m/z) was acquired on an Agilent 6520 Accurate-Mass Q-TOF in extended dynamic range and positive mode. Mass features were generated using two independent methods. First MassHunter Qualitative Analysis was used to generate mass features using the Molecular Feature Extraction algorithm (MFE).

human cardiomyocytes = tested on: human cardiomyocytes
Experimental: The percentage of cell death, inherently and after drug treatment, was calculated by Trypan Blue staining (FIG. 2).
The doses for each compound were based upon published standards, equivalent to therapeutic circulating levels whenever possible (see Table 1).

[2] = feature cpdID 36, neutral mass 101.1204, RT 0.720145, Triethylamine or Hexylamine
[3] = feature cpdID 8902, neutral mass 276.1256, RT 8.733378, no hit
[4] = feature cpdID 11232, neutral mass 311.1029, RT 7.400847, p-Glucosyloxymandelonitrile or (S)-4-Hydroxymandelonitrile beta-D-glucoside
[5] = feature cpdID 14190, neutral mass 356.253, RT 1.103957, HMDB04239, 13,14-dihydro PGE1 or Prostaglandin F1alpha
[6] = feature cpdID 15112, neutral mass 372.0557, RT […], no hit
[7] = feature cpdID 16504, neutral mass 393.0913, RT 7.25538, no hit
[8] = feature cpdID 16939, neutral mass 400.2796, RT 1.108613, 7-Ketocholesterol
[9] = feature cpdID 17096, neutral mass 403.1776, RT 6.2306, no hit
[10] = feature cpdID 19500, neutral mass 444.3034, RT 1.106333, […]-Dihydroxyvitamin D3-26,23-lactone
[11] = feature cpdID 19704, neutral mass 448.1344, RT 7.184483, no hit
[12] = feature cpdID 21926, neutral mass 488.3323, RT 1.106573, no hit
[13] = feature cpdID 23163, neutral mass 516.1241, RT 7.217222, Formononetin 7-O-glucoside-6″-O-malonate, Isochlorogenic acid b or 13-Dicaffeoylquinic acid
[14] = feature cpdID 24142, neutral mass 538.2779, RT 0.783395, no hit
[15] = feature cpdID 25601, neutral mass 576.3861, RT 1.10751, 3-Hexaprenyl-4-hydroxy-5-methoxybenzoic acid
[16] = feature cpdID 27363, neutral mass 620.4117, RT 1.108317, no hit
[17] = feature cpdID 28720, neutral mass 661.1924, RT 6.495524, no hit
[18] = feature cpdID 29101, neutral mass 672.1828, RT 6.528464, no hit
[19] = feature cpdID 29227, neutral mass 676.1781, RT 1.298314, no hit
[20] = feature cpdID 31637, neutral mass 744.1091, RT 1.26415, no hit
[21] = feature cpdID 42137, neutral mass 1122.172, RT 1.256606, no hit
[22] = feature cpdID 45209, neutral mass 1300.402, RT 6.501484, no hit
[23] = feature cpdID 45486, neutral mass 1322.385, RT 6.518707, no hit

SMILES: CC(=O)O[C@H]1C(=O)[C@@]2(C)[C@H]([C@H](OC(=O)c3ccccc3)[C@]3(O)C[C@H](OC(=O)[C@H](O)[C@@H](NC(=O)c4ccccc4)c4ccccc4)C(C)=C1C3(C)C)[C@]1(OC(C)=O)CO[C@@H]1C[C@@H]2O [Paclitaxel]
- pacfold [1, 2]: 1.413 fold
- pacfold [1, 3]: 2.728 fold
- pacfold [1, 4]: 4.25 fold
- pacfold [1, 5]: 12.08 fold
- pacfold [1, 6]: −1.026 fold
- pacfold [1, 7]: 1.219 fold
- pacfold [1, 8]: 11.76 fold
- pacfold [1, 9]: −2.028 fold
- pacfold [1, 10]: 17.08 fold
- pacfold [1, 11]: 2.694 fold
- pacfold [1, 12]: 8.467 fold
- pacfold ([1]; feature cpdID 23129, neutral mass 515.181, RT 10.44297, no hit): 1.263 fold
- pacfold [1, 13]: 2.288 fold
- pacfold [1, 14]: 1.807 fold
- pacfold ([1]; feature cpdID 25445, neutral mass 572.1055, RT 7.089848, no hit): 1.259 fold
- pacfold [1, 15]: 5.623 fold
- pacfold [1, 16]: 3.53 fold
- pacfold [1, 17]: 1.205 fold
- pacfold [1, 18]: 2.408 fold
- pacfold ([1]; feature cpdID 29124, neutral mass 672.6836, RT 6.559082, no hit): 1.432 fold
- pacfold [1, 19]: −1.322 fold
- pacfold [1, 20]: −1.129 fold
- pacfold ([1]; feature cpdID 37922, neutral mass 932.7613, RT 6.562271, no hit): 1.506 fold
- pacfold ([1]; feature cpdID 40510, neutral mass 1040.322, RT 6.499979, no hit): 1.465 fold
- pacfold [1, 21]: −2.322 fold
- pacfold [1, 22]: 1.771 fold
- pacfold [1, 23]: 1.836 fold
- cell death (in words) (human cardiomyocytes): significantly higher cell death

SMILES: CC/C(=C(\c1ccccc1)c1ccc(OCCN(C)C)cc1)c1ccccc1 [Tamoxifen]
- tamfold [1, 2]: 1.889 fold
- tamfold [1, 3]: 2.064 fold
- tamfold [1, 4]: 1.708 fold
- tamfold [1, 5]: 11.4 fold
- tamfold [1, 6]: −1.266 fold
- tamfold [1, 7]: 1.21 fold
- tamfold [1, 8]: 10.16 fold
- tamfold [1, 9]: −1.832 fold
- tamfold [1, 10]: 15.8 fold
- tamfold [1, 11]: 1.975 fold
- tamfold [1, 12]: 7.564 fold
- tamfold [1, 13]: 1.75 fold
- tamfold [1, 14]: 2.706 fold
- tamfold ([1]; feature cpdID 25561, neutral mass 575.2051, RT 7.271724, no hit): −1.008 fold
- tamfold [1, 15]: 5.478 fold
- tamfold [1, 16]: 3.46 fold
- tamfold [1, 17]: 1.185 fold
- tamfold [1, 18]: 2.364 fold
- tamfold [1, 19]: −1.514 fold
- tamfold [1, 20]: 1.02 fold
- tamfold ([1]; feature cpdID 33162, neutral mass 791.2316, RT 6.496594, no hit): 1.968 fold
- tamfold ([1]; feature cpdID 37905, neutral mass 932.2608, RT 6.542554, no hit): 1.8 fold
- tamfold ([1]; feature cpdID 37938, neutral mass 933.3726, RT 8.330596, no hit): 1.939 fold
- tamfold [1, 21]: −1.752 fold
- tamfold [1, 22]: 1.731 fold
- tamfold [1, 23]: 1.765 fold
